Experiments:
Format in all cases: biochemical
[1] = biological target: T1, Human FAAH (MBPΔTMhFAAH) (Homo sapiens, UniProt O00519); assay: Fluorescent assay protocol for hFAAH; conditions: human FAAH (MBP fusion, ΔTM), procedure as for rFAAH
T1 construct: made in house; host or cells: E. coli (pMALcE4 vector)
T1 sequence (O00519 30-579 limits assumed): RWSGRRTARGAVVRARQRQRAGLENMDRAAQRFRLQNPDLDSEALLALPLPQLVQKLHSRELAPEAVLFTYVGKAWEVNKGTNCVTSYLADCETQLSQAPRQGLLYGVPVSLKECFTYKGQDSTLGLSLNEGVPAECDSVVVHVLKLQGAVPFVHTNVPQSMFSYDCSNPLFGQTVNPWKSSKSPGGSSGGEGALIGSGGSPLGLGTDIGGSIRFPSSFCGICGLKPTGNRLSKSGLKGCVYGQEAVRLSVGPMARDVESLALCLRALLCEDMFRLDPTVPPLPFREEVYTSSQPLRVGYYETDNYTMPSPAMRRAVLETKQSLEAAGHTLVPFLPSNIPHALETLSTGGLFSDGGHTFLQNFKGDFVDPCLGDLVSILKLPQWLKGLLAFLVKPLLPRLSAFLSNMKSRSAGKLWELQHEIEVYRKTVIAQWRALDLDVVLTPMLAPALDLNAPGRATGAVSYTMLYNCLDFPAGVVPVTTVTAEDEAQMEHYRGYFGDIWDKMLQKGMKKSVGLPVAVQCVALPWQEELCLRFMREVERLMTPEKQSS
Protocol: Human FAAH without putative transmembrane domain following maltose binding protein was expressed in E. coli cells using pMALcE4 vector Alapafuja et al J. Med. Chem. (2012) 55: 10074-89.
Procedure was followed as described for hMAGL, except that arachidonoyl-methyl coumarin amide (AAMCA) was used as fluorigenic substrate. Compounds were diluted in 50:50 DMSO/assay buffer (50 mM HEPES, 1 mM EDTA, 0.1% BSA, pH 7.4) so as to have a final DMSO concentration below 8% in each reaction. For the screening assay, 3 concentrations (1 μM, 10 μM, and 100 μM) of test compounds, 15 μg of ΔTM rFAAH and assay buffer were pre-incubated for 15 min at 25° C. AAMCA (20 μM, 2×Km) was added prior to incubation at 25° C. and kinetic fluorescence reading every 20 minutes (λex=360/λem=460) for 4 hours on a BioTek Synergy HT Microplate Reader (BioTek Instruments, Winooski, Vt.). The fluorescence reading at the 3 hour time point (linear enzyme kinetics) was used to calculate percent inhibition based on control assays without inhibitor present. All FAAH assays were performed in triplicate for each inhibitor concentration, and IC50 values determined using Prizm software (GraphPad Software, Inc.).
Procedure was followed as described for rFAAH.

[2] = biological target: T2, Human MAGL (hMAGL) (Homo sapiens, UniProt Q99685); assay: Fluorescent assay protocol for hMAGL (AHMMCE substrate); conditions: recombinant human MAGL, AHMMCE substrate, 15 min preincubation; read-out: IC50 hMAGL
T2 construct: hexahistidine; made in house; host or cells: E. coli
T2 sequence (Q99685 1-303): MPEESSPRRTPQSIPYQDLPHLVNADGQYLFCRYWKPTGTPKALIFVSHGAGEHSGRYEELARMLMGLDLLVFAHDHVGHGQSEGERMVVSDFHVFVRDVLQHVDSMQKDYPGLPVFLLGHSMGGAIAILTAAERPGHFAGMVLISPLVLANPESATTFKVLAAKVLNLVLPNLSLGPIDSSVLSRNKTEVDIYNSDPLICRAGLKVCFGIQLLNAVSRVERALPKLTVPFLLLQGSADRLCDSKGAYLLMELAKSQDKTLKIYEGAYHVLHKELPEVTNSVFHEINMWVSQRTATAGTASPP
Protocol: (§1) This medium throughput assay involved a 96-well plate format in which hMAGL activity was monitored by the hydrolysis of the substrate 7-hydroxy-6-methoxy-4-methylcoumarin ester (AHMMCE) to form the fluorescent product, coumarin. […] Upon the addition of AHMMCE, the reaction was incubated at 25° C. for 120 min; fluorescence readings were taken every 15 min at 360 nm/460 nm (λexcitation/λemission) using a Synergy HT Plate Reader (Bio-Tek, Winooski, Vt.). […] External standards were used to convert relative fluorescence units to the amount of 4-methylcoumarin formed. All MAGL assays were performed in triplicate for each inhibitor concentration, and IC50 values were calculated using Prizm software (GraphPad Software, Inc., San Diego, Calif.).

[3] = biological target: T3, ΔTM rat FAAH (Rattus norvegicus, UniProt P97612); assay: Fluorescent assay protocol for ΔTM rat FAAH (AAMCA substrate); conditions: 15 min preincubation, read-out: IC50 rFAAH
T3 construct: Preparation of Transmembrane Domain-Deleted Rat FAAH (ΔTM rFAAH); made in house; host or cells: E. coli
T3 sequence (P97612 30-579 limits assumed): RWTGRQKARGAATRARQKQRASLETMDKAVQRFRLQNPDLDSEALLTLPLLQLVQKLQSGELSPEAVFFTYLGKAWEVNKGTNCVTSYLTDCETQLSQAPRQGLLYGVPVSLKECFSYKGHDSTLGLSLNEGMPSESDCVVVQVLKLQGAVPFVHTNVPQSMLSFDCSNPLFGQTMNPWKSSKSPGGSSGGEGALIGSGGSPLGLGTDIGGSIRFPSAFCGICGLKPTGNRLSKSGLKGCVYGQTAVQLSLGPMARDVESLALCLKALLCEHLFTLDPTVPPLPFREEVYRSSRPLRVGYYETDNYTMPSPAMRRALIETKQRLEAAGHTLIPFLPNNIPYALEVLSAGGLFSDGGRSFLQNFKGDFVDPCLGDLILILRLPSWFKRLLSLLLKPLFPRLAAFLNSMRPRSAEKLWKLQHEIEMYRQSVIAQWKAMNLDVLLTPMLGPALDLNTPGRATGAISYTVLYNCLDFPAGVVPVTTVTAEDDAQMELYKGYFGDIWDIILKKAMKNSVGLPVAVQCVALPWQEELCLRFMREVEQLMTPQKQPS
Protocol: Procedure was followed as described for hMAGL, except that arachidonoyl-methyl coumarin amide (AAMCA) was used as fluorigenic substrate. […] For the screening assay, 3 concentrations (1 μM, 10 μM, and 100 μM) of test compounds, 15 μg of ΔTM rFAAH and assay buffer were pre-incubated for 15 min at 25° C. […] The fluorescence reading at the 3 hour time point (linear enzyme kinetics) was used to calculate percent inhibition based on control assays without inhibitor present. All FAAH assays were performed in triplicate for each inhibitor concentration, and IC50 values determined using Prizm software (GraphPad Software, Inc.).

[4] = biological target: T4, Rat MAGL (rMAGL) (Rattus norvegicus, UniProt Q8R431); assay: Fluorescent assay protocol for rMAGL; conditions: recombinant rat MAGL, procedure as for hMAGL; read-out: IC50 rMAGL
T4 construct: made in house; host or cells: E. coli
T4 sequence (Q8R431 1-303): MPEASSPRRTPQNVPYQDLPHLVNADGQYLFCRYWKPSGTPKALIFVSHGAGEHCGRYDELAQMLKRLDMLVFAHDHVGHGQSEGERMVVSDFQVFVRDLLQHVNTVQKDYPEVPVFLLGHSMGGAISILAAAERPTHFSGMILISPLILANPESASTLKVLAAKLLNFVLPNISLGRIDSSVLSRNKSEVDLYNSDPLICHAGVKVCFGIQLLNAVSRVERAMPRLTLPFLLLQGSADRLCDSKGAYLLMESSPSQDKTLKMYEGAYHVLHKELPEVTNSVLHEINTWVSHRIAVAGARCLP
Protocol: as §1
Procedure was followed as described for hMAGL.

Compound | IC50 [1] [nM] | IC50 [2] [nM] | IC50 [3] [nM] | IC50 [4] [nM]
6-Chloropyridin-2-yl 4-(benzhydryl)piperidine-1-carboxylate [Example 51] | 10 to 100 | > 1000 | 10 to 100 | > 1000
C[C@@H]1CN(C(=O)Nc2cccc(-c3cccc(C(N)=O)c3)c2)CCN1Cc1ccc2ccccc2n1 [Example 2, (R)—N-(3′-carbamoyl-[1,1′-biphenyl]-3-yl)-3-methyl-4-(quinolin-2-ylmethyl)piperazine-1-carboxamide] | > 1000 | > 1000 | 110 to 1000 | > 1000
C[C@H]1CN(Cc2cccc(Oc3ccccc3)c2)CCN1C(=O)Nc1cccc(-c2cccc(C(N)=O)c2)c1 [Example 4, (S)—N-(3′-carbamoyl-[1,1′-biphenyl]-3-yl)-2-methyl-4-(3-phenoxybenzyl)piperazine-1-carboxamide] | 10 to 100 | > 1000 | 10 to 100 | > 1000
C[C@H]1CN(Cc2cccc(Oc3ccccc3)c2)CCN1C(=O)Nc1cncc(-c2cccc(C#N)c2)c1 [Example 5, (S)—N-(5-(3-cyanophenyl)pyridin-3-yl)-2-methyl-4-(3-phenoxybenzyl)piperazine-1-carboxamide] | > 1000 | > 1000 | > 1000 | > 1000
NC(=O)c1cccc(-c2cccc(NC(=O)N3CCN(Cc4cnc5ccccc5c4)CC3)c2)c1 [Example 6, N-(3′-carbamoyl-[1,1′-biphenyl]-3-yl)-4-(quinolin-3-ylmethyl)piperazine-1-carboxamide] | 10 to 100 | 110 to 1000 | 10 to 100 | 110 to 1000
NC(=O)c1cccc(-c2cccc(NC(=O)N3CCN(C4c5ccccc5-c5ccccc54)CC3)c2)c1 [Example 8, N-(3′-carbamoyl-[1,1′-biphenyl]-3-yl)-4-(9H-fluoren-9-yl)piperazine-1-carboxamide] | 10 to 100 | > 1000 | 10 to 100 | > 1000
NC(=O)c1cccc(-c2cccc(NC(=O)N3CCN(c4ccccn4)CC3)c2)c1 [Example 9, N-(3′-carbamoyl-[1,1′-biphenyl]-3-yl)-4-(pyridin-2-yl)piperazine-1-carboxamide] | 10 to 100 | > 1000 | 10 to 100 | > 1000
NC(=O)c1cccc(-c2cccc(NC(=O)N3CCN(Cc4ccc(-c5ccccc5)cc4)CC3)c2)c1 [Example 10, 4-([1,1′-biphenyl]-4-ylmethyl)-N-(3′-carbamoyl-[1,1′-biphenyl]-3-yl)piperazine-1-carboxamide] | 10 to 100 | > 1000 | 10 to 100 | > 1000
NC(=O)c1cccc(-c2cccc(NC(=O)N3CCN(c4ccccc4)CC3)c2)c1 [Example 11, N-(3′-carbamoyl-[1,1′-biphenyl]-3-yl)-4-phenylpiperazine-1-carboxamide] | 10 to 100 | > 1000 | 10 to 100 | > 1000

— patent US11214578B2, “Urea/carbamates FAAH MAGL or dual FAAH/MAGL inhibitors and uses thereof” (Northeastern University, priority 2014, dated 2022)
